Test results published in ChEMBL document CHEMBL1201862, “PubChem BioAssay data set” (2004).
Calls of active or inactive are those of the source.

Key:
[1] = Luminescence Cell-Based Dose Retest to Confirm Inhibitors of Cancer Stem Cells. [Related pubchem assays (depositor defined):AID2717, AID2721]; assay type: functional; conditions: Homo sapiens
[2] = cytotoxicity toward NIH3T3 fibroblasts, dose response, counter-screen, cell-based, ATP luminescence, mouse fibroblasts (AID 2010); assay type: functional;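 further: cells exposed to compound for about 90 hours before reading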
[3] = control 3'UTR Renilla luciferase suppression, dose response, counter-screen for Shn3 inhibitor project, cell-based, Clone20-Shn3RL, cherry-picked (AID 624133); assay type: functional
[4] = inhibitors of intracellular T. cruzi replication, confirmation, NIH3T3 host cells, beta-gal luminescence (AID 2044); assay type: functional, cell-based;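 further: intracellular parasites grown in NIH/3T3 mouse fibroblasts as host cells; luminescent beta-galactosidase reporter signal from transgenic T. cruzi replicating inside host cells; inhibitors lower the luminescence signal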
[5] = HepG2 cell cytotoxicity, dose response, cytotoxicity control for Shn3 inhibitor project, CellTiter-Glo, cherry-picked (AID 624134); assay type: functional, cell-based
[6] = Shn3 3'UTR reporter inhibitors, dose response, cell-based, Clone20 osteoblasts, firefly luciferase, cherry-picked (AID 624132); assay type: functional;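 further: firefly luciferase luminescence from reporter carrying the Shn3 3'UTR in osteoblasts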
X-box-binding protein 1 = X-box-binding protein 1 (Homo sapiens, UniProt P17861); assay type: functional, Cricetulus griseus;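 further: confirmatory dose-response counter-screen serving a CHOP assay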
Streptococcus = assay: Group A Streptococcus viability loss, dose response, counter-screen for streptokinase expression inhibitor project, luminescence, BacTiterGlo (AID 1915); assay type: functional, organism-based;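 further: potency for reduction of bacterial viability or growth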
Streptokinase A = target: T1, Streptokinase A (Streptococcus pyogenes serotype M1, UniProt P10520); assay: S. pyogenes streptokinase expression inhibitors, potency, dose response, plasminogen activation absorbance, OD405 (AID 1914); assay type: functional, Streptococcus pyogenes M1 GAS;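 further: secreted streptokinase activity via plasminogen activation per viability signal from cell pellet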
T1 sequence (P10520 whole entry): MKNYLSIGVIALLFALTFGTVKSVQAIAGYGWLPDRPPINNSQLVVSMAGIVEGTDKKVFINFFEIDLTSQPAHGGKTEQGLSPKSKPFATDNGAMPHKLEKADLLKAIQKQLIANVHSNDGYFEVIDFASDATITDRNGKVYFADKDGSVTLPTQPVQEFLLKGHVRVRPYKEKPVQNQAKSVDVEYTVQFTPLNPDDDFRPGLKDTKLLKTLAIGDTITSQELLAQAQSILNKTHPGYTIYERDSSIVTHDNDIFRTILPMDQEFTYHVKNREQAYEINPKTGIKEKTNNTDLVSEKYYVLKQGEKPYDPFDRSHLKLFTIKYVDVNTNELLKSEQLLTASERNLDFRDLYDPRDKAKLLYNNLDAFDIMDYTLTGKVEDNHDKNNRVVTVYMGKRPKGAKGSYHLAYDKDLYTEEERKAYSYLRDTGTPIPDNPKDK

[7] = target: T2, Sphingosine 1-phosphate receptor 4 (Homo sapiens, UniProt O95977); assay: Fluorescence dose response cell-based high throughput screening assay for antagonists of the Sphingosine 1-Phosphate Receptor 4 (S1P4). [Related pubchem assays: 1524 (Confirmation in triplicates.), 1510 (Primary screen.)]; assay type: functional
T2 sequence (O95977 whole entry): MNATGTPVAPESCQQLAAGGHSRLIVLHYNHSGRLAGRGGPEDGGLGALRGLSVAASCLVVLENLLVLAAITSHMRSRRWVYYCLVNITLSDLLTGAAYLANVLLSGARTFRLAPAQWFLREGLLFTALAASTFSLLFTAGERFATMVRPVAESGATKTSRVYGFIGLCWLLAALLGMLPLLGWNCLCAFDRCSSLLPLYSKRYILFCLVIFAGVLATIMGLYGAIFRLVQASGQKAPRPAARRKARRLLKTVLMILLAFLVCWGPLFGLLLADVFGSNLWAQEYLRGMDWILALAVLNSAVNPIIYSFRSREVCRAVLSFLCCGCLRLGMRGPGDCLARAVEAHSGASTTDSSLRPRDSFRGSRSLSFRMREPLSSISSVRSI

[8] = tested on: Streptococcus sp. 'group A'; assay: growth inhibition of control SK(-) GAS strain, dose response, counter-screen for streptokinase expression inhibitor project, luminescence, kanamycin, BacTiterGlo, confirmation (AID 1900); assay type: functional, organism-based
[9] = target: T2, Sphingosine 1-phosphate receptor 4; assay: Late stage fluorescence dose response cell-based screening assay for antagonists of the Sphingosine 1-Phosphate Receptor 4 (S1P4). [Related pubchem assays: 1524 (Confirmation screen (S1P4 antagonists).), 1510 (Primary screen (S1P4 antagonists).), 1853 (Summary AID (S1P4 antagonists).), 1692 (Dose response screen (S1P4 antagonists).)]; assay type: functional
[10] = microbe, parasite or virus in culture; assay type: functional; conditions: Mycobacterium tuberculosis
[11] = target: T3, Heat shock factor protein 1 (Mus musculus, UniProt P38532); assay: inhibition of MG132-induced HSE-luciferase signal, confirmation, cell-based, NIH3T3, luminescence, dose retest (AID 2382); assay type: functional;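 further: NIH3T3 fibroblasts with HSF1-driven luciferase reporter stressed by proteasome inhibitor MG132; luminescence from HSF1-driven luciferase expression after 8 hours of MG132 stress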
T3 sequence (P38532 whole entry): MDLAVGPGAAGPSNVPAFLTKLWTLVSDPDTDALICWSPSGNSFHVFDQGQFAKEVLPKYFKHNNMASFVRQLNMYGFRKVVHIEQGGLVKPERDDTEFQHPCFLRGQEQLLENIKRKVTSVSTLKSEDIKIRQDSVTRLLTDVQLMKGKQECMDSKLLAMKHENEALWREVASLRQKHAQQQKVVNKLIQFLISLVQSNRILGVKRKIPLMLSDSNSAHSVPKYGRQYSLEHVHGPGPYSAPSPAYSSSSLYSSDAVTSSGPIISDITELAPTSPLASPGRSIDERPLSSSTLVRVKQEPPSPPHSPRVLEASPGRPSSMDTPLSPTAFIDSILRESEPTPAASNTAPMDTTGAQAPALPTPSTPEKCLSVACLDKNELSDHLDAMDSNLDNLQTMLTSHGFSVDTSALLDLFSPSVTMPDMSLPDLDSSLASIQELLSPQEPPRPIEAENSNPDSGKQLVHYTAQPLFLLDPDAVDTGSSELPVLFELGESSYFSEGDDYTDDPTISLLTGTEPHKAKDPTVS

[12] = target: Neurotensin receptor type 1 (Homo sapiens, UniProt P30989); assay type: functional;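 further: Image-based confirmatory dose-response assay measuring agonist activity at NTR1; NTR1-expressing U2OS osteosarcoma cells imaged for beta-arrestin GFP spot formation; agonist potency where compounds increase beta-arrestin recruitment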
Beta-galactosidase = Beta-galactosidase (Escherichia coli, UniProt Q8VNN2); assay: beta-galactosidase enzyme inhibitors and activators, dose response, artefact control for CCR6 antagonist project, biochemical, E. coli enzyme, set 3 (AID 504712); assay type: functional
[13] = target: Heat shock protein HSP 90-alpha (Homo sapiens, UniProt P07900); assay type: functional, organism-based
[14] = target: Sphingosine 1-phosphate receptor 1 (Homo sapiens, UniProt P21453); assay type: functional;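 further: Tango beta-arrestin reporter U2OS cells stimulated with S1P near its EC80; inhibitor potency meaning antagonism of receptor activation by the natural agonist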
[15] = target: G-protein coupled receptor 35 (Homo sapiens, UniProt Q9HC97); assay: GPR35 antagonists blocking zaprinast-driven arrestin recruitment, primary screen, imaging, U2OS, beta-arrestin-GFP, zaprinast agonist (AID 2058); assay type: functional;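 further: antagonist potency meaning inhibition of agonist-induced arrestin redistribution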
BJ [16] = assay: cytotoxicity toward Ras-transformed BJeLR fibroblasts, dose response, cell-based, alamar blue fluorescence, cherrypicked samples (AID 2631); assay type: functional; conditions: Homo sapiens;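 further: confirmatory dose-response assay in RAS-dependent BJ fibroblasts engineered with TERT, LT and ST, with cytotoxicity read by fluorescence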
BJ [17] = assay: cytotoxicity toward BJ-TERT-LT-ST fibroblasts, dose response, cell-based, RAS-independent, luminescence (AID 1935); assay type: functional; conditions: Homo sapiens;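 further: BJ fibroblasts immortalized with TERT plus LT and ST oncogenes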
BJ [18] = assay: cells; assay type: functional, cell-based; conditions: Homo sapiens
BJ [19] = assay: cytotoxicity toward BJ-TERT fibroblasts, dose response, cell-based, RAS-independent, luminescence (AID 1933); assay type: functional; conditions: Homo sapiens
[20] = target: G-protein coupled receptor 55 (Homo sapiens, UniProt Q9Y2T6); assay: GPR55 agonists via beta-arrestin recruitment, primary screen, imaging, U2OS cells, beta-arrestin-GFP redistribution (AID 1961); assay type: functional
[21] = cytotoxicity toward DRD oncogenic fibroblasts, dose response, cell-based, non-viral oncogenic, luminescence (AID 1934); assay type: functional; conditions: Homo sapiens
Trypsin = Trypsin (Sus scrofa, UniProt P00761); assay: porcine trypsin inhibitors, dose response, selectivity assay for Rce1 protease inhibitor project, biochemical, quenched peptide fluorescence, cherry-pick (AID 488789)
[22] = target: T4, Voltage-dependent T-type calcium channel subunit alpha-1H (Homo sapiens, UniProt O95180); assay: Inhibitors of T-Type Calcium Channels. [Related pubchem assays (depositor defined):AID449739, AID463087, AID489005, AID493041, AID504579, AID504584, AID504619, AID504628]; assay type: functional
[23] = target: T4, Voltage-dependent T-type calcium channel subunit alpha-1H; assay type: functional

T4 sequence (O95180 whole entry): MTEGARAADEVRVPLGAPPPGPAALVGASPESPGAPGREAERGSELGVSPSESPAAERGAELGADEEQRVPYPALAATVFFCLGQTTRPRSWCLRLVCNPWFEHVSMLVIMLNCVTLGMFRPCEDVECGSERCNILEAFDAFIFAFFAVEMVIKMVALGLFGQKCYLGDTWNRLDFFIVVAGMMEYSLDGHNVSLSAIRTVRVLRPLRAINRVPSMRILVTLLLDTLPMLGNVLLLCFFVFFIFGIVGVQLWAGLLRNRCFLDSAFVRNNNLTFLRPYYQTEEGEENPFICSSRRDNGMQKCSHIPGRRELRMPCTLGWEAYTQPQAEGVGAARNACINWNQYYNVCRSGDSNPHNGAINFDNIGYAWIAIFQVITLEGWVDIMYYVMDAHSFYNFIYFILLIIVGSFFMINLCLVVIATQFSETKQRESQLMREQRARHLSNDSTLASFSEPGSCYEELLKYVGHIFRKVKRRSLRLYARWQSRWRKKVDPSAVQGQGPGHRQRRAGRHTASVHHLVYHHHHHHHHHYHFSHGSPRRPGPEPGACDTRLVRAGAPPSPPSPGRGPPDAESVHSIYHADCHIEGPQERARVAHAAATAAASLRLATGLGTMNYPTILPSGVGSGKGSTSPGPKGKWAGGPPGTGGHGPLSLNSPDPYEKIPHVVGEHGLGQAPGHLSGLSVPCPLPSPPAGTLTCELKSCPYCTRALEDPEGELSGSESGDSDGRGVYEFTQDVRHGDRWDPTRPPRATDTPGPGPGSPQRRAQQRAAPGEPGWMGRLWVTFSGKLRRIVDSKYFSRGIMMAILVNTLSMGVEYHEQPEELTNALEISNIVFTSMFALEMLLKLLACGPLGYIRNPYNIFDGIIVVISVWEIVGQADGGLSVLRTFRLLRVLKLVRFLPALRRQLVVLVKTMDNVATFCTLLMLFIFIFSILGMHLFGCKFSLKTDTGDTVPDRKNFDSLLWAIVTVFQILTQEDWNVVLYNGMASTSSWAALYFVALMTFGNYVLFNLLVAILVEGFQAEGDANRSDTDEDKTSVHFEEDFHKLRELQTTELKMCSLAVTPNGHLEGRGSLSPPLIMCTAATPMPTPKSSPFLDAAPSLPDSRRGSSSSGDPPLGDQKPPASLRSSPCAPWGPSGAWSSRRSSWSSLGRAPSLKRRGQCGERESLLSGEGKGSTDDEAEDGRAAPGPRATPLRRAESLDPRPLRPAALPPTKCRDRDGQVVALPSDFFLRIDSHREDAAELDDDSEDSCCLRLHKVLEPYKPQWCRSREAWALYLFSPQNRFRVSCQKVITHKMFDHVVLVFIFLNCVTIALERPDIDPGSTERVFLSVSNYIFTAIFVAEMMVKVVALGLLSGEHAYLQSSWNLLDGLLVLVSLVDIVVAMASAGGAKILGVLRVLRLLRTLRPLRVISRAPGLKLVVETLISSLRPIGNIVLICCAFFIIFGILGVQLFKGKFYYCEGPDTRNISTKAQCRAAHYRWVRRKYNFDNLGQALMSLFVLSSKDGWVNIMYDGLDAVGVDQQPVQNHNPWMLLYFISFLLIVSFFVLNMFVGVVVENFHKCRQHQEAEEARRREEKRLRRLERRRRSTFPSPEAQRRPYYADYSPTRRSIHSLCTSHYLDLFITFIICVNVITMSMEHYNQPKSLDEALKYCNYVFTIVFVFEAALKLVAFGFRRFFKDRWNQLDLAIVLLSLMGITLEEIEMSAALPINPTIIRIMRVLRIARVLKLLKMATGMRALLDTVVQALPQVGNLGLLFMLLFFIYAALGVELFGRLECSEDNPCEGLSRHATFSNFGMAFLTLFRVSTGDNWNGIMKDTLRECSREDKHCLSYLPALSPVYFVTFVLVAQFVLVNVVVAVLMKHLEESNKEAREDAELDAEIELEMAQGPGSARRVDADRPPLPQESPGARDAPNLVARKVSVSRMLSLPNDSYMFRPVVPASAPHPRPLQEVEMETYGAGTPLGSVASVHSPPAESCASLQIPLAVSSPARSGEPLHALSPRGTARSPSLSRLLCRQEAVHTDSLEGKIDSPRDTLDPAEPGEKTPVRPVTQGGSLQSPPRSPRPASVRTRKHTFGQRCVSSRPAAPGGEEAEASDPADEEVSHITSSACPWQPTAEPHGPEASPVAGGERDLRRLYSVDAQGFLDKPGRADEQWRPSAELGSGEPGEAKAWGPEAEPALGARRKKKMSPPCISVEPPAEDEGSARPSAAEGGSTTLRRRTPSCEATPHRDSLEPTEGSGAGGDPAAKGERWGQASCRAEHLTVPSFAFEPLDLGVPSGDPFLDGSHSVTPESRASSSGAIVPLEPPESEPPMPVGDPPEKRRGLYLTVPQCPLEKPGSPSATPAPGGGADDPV
G-protein coupled receptor 35, sequence (Q9HC97 whole entry): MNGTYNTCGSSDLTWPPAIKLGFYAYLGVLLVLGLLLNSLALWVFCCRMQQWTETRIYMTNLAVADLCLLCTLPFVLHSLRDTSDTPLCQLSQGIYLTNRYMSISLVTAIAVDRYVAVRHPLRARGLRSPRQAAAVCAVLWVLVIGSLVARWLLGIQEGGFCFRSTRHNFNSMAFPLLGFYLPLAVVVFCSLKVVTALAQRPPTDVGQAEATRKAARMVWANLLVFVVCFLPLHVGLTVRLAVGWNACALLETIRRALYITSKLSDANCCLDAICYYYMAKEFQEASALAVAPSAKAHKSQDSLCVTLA
Sphingosine 1-phosphate receptor 1, sequence (P21453 whole entry): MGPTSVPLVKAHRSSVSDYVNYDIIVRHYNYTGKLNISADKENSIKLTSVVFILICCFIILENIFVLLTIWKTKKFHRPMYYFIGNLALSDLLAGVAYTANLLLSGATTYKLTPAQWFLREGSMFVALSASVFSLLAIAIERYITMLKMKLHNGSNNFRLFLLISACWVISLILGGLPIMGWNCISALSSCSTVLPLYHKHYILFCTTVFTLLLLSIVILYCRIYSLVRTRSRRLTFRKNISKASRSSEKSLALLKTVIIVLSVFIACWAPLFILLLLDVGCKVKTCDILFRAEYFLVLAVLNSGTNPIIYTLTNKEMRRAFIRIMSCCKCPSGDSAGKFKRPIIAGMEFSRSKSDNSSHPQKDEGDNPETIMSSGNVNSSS
G-protein coupled receptor 55, sequence (Q9Y2T6 whole entry): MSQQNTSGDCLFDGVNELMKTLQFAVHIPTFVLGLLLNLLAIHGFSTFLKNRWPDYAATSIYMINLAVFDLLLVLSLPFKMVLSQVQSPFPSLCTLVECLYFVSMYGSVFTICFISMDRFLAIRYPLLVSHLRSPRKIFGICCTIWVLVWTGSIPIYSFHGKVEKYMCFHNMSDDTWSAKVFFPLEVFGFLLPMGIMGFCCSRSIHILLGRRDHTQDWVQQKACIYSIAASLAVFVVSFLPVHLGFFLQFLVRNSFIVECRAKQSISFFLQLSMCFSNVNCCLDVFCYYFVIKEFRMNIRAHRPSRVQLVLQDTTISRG
Neurotensin receptor type 1, sequence (P30989 whole entry): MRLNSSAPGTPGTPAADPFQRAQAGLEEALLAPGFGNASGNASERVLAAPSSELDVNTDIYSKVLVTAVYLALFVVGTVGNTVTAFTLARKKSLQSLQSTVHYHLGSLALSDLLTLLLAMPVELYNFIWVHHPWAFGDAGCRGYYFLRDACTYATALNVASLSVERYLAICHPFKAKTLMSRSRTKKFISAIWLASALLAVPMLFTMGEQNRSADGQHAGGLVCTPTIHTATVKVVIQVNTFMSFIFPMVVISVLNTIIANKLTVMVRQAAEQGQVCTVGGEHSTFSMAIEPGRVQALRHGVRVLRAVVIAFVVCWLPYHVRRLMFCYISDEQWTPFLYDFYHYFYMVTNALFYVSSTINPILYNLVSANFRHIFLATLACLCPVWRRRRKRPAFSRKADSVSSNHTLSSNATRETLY
Beta-galactosidase, sequence (Q8VNN2 whole entry): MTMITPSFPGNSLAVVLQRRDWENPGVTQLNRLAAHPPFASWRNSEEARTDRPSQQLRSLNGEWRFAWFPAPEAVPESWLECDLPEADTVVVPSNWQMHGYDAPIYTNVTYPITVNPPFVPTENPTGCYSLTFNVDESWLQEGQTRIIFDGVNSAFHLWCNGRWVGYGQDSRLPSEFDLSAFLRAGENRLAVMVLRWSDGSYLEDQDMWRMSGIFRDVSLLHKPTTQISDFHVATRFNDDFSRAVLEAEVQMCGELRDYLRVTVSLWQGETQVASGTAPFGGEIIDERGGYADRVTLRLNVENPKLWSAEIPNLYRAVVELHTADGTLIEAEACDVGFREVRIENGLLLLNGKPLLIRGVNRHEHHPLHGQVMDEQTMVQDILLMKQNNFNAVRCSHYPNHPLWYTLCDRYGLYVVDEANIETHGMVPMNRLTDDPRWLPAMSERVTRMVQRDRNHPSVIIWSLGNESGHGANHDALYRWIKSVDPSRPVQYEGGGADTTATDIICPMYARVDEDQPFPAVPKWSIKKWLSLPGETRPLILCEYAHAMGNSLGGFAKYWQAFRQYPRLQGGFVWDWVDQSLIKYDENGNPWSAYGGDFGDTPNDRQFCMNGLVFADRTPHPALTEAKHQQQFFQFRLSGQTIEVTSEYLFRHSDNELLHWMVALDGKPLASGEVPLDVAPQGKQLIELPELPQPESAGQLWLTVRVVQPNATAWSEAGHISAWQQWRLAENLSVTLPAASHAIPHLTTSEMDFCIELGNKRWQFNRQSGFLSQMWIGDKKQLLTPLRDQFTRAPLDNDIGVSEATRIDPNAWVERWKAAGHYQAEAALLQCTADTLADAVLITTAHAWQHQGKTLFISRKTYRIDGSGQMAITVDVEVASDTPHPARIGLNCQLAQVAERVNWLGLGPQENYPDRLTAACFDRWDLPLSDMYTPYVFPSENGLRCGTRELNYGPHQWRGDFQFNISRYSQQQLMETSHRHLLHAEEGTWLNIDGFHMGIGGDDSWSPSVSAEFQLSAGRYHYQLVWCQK
Trypsin, sequence (P00761 whole entry): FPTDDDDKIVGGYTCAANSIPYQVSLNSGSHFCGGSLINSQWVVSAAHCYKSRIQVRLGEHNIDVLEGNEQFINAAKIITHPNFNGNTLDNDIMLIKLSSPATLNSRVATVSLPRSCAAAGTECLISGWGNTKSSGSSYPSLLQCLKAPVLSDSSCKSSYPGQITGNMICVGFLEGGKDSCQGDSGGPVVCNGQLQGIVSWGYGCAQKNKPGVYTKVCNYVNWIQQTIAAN

SMILES: Cc1cc(Nc2cccc([N+](=O)[O-])c2)n2c(nc3ccccc32)c1C#N
- AC50 [1]: 2.33 µM (active)
- EC50 [2]: > 60 µM (inconclusive)
- AC50 [3]: 3.46 µM (active)
- EC50 [4]: 2.47 µM (active)
- AC50 [5]: 2.15 µM (active)
- AC50 [6]: 1.9 µM (active)
- Absolute IC50 (XBP1) (X-box-binding protein 1): 10 µM

SMILES: CCOc1cc(/C=C\[N+](=O)[O-])ccc1OCC(=O)Nc1ccccc1C
- EC50 (Streptococcus): 12.3 µM (active)
- EC50 (Streptokinase A): 4.73 µM (active)
- IC50 [7]: 0.913 µM (active)
- EC50 [8]: 7.34 µM (active)
- IC50 [9]: 1.8 µM (not active)
- CC50 [10]: > 40 µM (active)
- EC50 [11]: 5.09 µM (active)
- AC50 [3]: 4.63 µM (active)
- EC50 [12]: 9.86 µM (active)
- AC50 [5]: 22.5 µM (active)
- IC50 (Beta-galactosidase): > 66.6 µM (inactive)
- AC50 [6]: < 0.26 µM (active)
- AC50 [13]: 3.66 µM (active)
- IC50 [14]: 18.8 µM (not active)

SMILES: COc1ccc(C=C2C=C(C(C)(C)C)C(=O)C(C(C)(C)C)=C2)cc1OC
- AC50 [1]: 1.88 µM (active)
- IC50 [15]: 3.16 µM (active)
- CC50 [10]: 12.8 µM (active)
- EC50 (BJ [16]): 0.571 µM (inconclusive)
- EC50 (BJ [17]): 3.54 µM (inconclusive)
- EC50 (BJ [18]): 6.69 µM (active)
- EC50 (BJ [19]): 2.93 µM (active)
- EC50 [20]: > 32 µM (inactive)
- EC50 [21]: 5.35 µM (inconclusive)

SMILES: COc1ccc(-c2oc3ccc(N4CCOCC4)cc3c2/C=C/c2ccc(OC)c(OC)c2)cc1
- AC50 (Trypsin): 2.77 µM (active)

SMILES: CC(C)(C)n1nnnc1CN1CCN(C(c2ccccc2)c2ccccc2)CC1
- EC50 [22]: 7.64 µM (active)
- EC50 [23]: 6.42 µM (active)
